Laboratory results published in US8796289B2 (AbbVie Inc., priority 2011, dated 2014).
pKi: −log10 of the molar value.

Each compound was assayed against GST-tagged-Wee1 kinase (Homo sapiens, UniProt P30291) (assay: Wee1 time-resolved fluorescence equilibrium binding assay (displacement of Oregon Green-labeled ATP-competitive kinase probe)).
Protocol: Wee1 kinase was assayed using a time-resolved fluorescence equilibrium binding assay monitoring displacement of a rapidly reversible Oregon Green-labeled ATP-competitive kinase probe (N-(2-(2-(2-(4-(4-(5-chloro-4-(2-(1-hydroxycyclobutyl)thiazol-5-yl)-1H-pyrrolo[2,3-b]pyridin-2-yl)phenyl)piperazin-1-yl)ethoxy)ethoxy)ethyl)-2′,7′-difluoro-3′,6′-dihydroxy-3-oxo-3H-spiro[isobenzofuran-1,9′-xanthene]-5-carboxamide) by competitive Wee1 inhibitors.

GST-tagged-Wee1 kinase, sequence (P30291 whole entry): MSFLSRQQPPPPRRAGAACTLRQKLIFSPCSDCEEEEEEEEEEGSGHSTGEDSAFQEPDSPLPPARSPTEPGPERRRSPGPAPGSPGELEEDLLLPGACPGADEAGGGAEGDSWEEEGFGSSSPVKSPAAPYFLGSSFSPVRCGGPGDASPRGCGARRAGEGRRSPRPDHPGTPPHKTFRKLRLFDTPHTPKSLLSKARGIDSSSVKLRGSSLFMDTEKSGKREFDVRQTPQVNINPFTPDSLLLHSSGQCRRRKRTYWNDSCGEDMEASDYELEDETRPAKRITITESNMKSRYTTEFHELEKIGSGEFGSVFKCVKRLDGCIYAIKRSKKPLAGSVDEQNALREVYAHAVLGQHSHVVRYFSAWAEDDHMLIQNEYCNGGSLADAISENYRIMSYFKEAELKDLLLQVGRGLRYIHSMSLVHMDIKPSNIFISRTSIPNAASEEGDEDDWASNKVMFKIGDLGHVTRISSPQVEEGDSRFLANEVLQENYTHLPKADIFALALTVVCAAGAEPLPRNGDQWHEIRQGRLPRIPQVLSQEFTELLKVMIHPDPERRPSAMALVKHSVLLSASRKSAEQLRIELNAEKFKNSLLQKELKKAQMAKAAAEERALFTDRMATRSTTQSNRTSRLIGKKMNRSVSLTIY

Structure (SMILES) | pKi
CN1CCN(c2ccc(Nc3ncc4c(=O)n(-c5c(Cl)cccc5Cl)nc(-c5cccnc5)c4n3)cc2)CC1 [Example 99, 6-(2,6-dichlorophenyl)-2-{[4-(4-methylpiperazin-1-yl)phenyl]amino}-8-(pyridin-3-yl)pyrimido[4,5-d]pyridazin-5(6H)-one] | 10.05
CN1CCN(c2ccc(Nc3ncc4c(=O)n(-c5ccccc5)nc(-c5cccnc5)c4n3)cc2)CC1 [Example 100, 2-{[4-(4-methylpiperazin-1-yl)phenyl]amino}-6-phenyl-8-(pyridin-3-yl)pyrimido[4,5-d]pyridazin-5(6H)-one] | 7.85
CN1Cc2cc(Nc3ncc4c(=O)n(-c5c(Cl)cccc5Cl)nc(-c5cccnc5)c4n3)ccc2C2(CC2)C1 [Example 101, 6-(2,6-dichlorophenyl)-2-[(2′-methyl-2′,3′-dihydro-1′H-spiro[cyclopropane-1,4′-isoquinolin]-7′-yl)amino]-8-(pyridin-3-yl)pyrimido[4,5-d]pyridazin-5(6H)-one] | 10.70
CN1CCN(c2ccc(Nc3ncc4c(=O)n(-c5ccccc5)nc(-c5ccccn5)c4n3)cc2)CC1 [Example 102, 2-{[4-(4-methylpiperazin-1-yl)phenyl]amino}-6-phenyl-8-(pyridin-2-yl)pyrimido[4,5-d]pyridazin-5(6H)-one] | 8.22
CN1CCN(c2ccc(Nc3ncc4c(=O)n(-c5c(Cl)cccc5Cl)nc(-c5ccccn5)c4n3)cc2)CC1 [Example 103, 6-(2,6-dichlorophenyl)-2-{[4-(4-methylpiperazin-1-yl)phenyl]amino}-8-(pyridin-2-yl)pyrimido[4,5-d]pyridazin-5(6H)-one] | 9.70
CN1Cc2cc(Nc3ncc4c(=O)n(-c5c(Cl)cccc5Cl)nc(-c5ccccn5)c4n3)ccc2C2(CC2)C1 [Example 104, 6-(2,6-dichlorophenyl)-2-[(2′-methyl-2′,3′-dihydro-1′H-spiro[cyclopropane-1,4′-isoquinolin]-7′-yl)amino]-8-(pyridin-2-yl)pyrimido[4,5-d]pyridazin-5(6H)-one] | 9.22
CN1CCN(c2ccc(Nc3ncc4c(=O)n(-c5c(Cl)cccc5Cl)nc(C5CCCNC5)c4n3)cc2)CC1 (stereo not shown) [Example 105, 6-(2,6-dichlorophenyl)-2-{[4-(4-methylpiperazin-1-yl)phenyl]amino}-8-(piperidin-3-yl)pyrimido[4,5-d]pyridazin-5(6H)-one] | 8.40
Cc1ccccc1-n1nc(-c2ccco2)c2nc(Nc3ccc(CN(C)C)cc3)ncc2c1=O [Example 106, 2-({4-[(dimethylamino)methyl]phenyl}amino)-8-(2-furyl)-6-(2-methylphenyl)pyrimido[4,5-d]pyridazin-5(6H)-one] | 8.30
Cc1ccccc1-n1nc(-c2ccco2)c2nc(Nc3ccc(N4CCN(C(C)C)CC4)cc3)ncc2c1=O [Example 107, 8-(2-furyl)-2-{[4-(4-isopropylpiperazin-1-yl)phenyl]amino}-6-(2-methylphenyl)pyrimido[4,5-d]pyridazin-5(6H)-one] | 9.00
Cc1ccccc1-n1nc(-c2ccco2)c2nc(Nc3ccc(S(=O)(=O)N4CCOCC4)cc3)ncc2c1=O [Example 108, 8-(2-furyl)-6-(2-methylphenyl)-2-{[4-(morpholin-4-ylsulfonyl)phenyl]amino}pyrimido[4,5-d]pyridazin-5(6H)-one] | 6.82
Cc1ccccc1-n1nc(-c2ccccc2)c2nc(Nc3ccc(S(=O)(=O)N4CCOCC4)cc3)ncc2c1=O [Example 109, 6-(2-methylphenyl)-2-{[4-(morpholin-4-ylsulfonyl)phenyl]amino}-8-phenylpyrimido[4,5-d]pyridazin-5(6H)-one] | < 5.50
C=CCn1nc(-c2ccccc2)c2nc(Nc3ccc(S(=O)(=O)N4CCOCC4)cc3)ncc2c1=O [Example 110, 6-allyl-2-{[4-(morpholin-4-ylsulfonyl)phenyl]amino}-8-phenylpyrimido[4,5-d]pyridazin-5(6H)-one] | < 5.50
Cc1ccccc1-n1nc(-c2ccccc2)c2nc(Nc3ccc(CN(C)C)cc3)ncc2c1=O [Example 111, 2-({4-[(dimethylamino)methyl]phenyl}amino)-6-(2-methylphenyl)-8-phenylpyrimido[4,5-d]pyridazin-5(6H)-one] | 8.60
C=CCn1nc(-c2ccco2)c2nc(Nc3ccc(N4CCN(C(C)C)CC4)cc3)ncc2c1=O [Example 112, 6-allyl-8-(2-furyl)-2-{[4-(4-isopropylpiperazin-1-yl)phenyl]amino}pyrimido[4,5-d]pyridazin-5(6H)-one] | 7.85
COc1cc(Nc2ncc3c(=O)n(-c4ccccc4C)nc(-c4ccccc4)c3n2)ccc1N1CCN(C(C)C)CC1 [Example 113, 2-{[4-(4-isopropylpiperazin-1-yl)-3-methoxyphenyl]amino}-6-(2-methylphenyl)-8-phenylpyrimido[4,5-d]pyridazin-5(6H)-one] | 9.40
C=CCn1nc(-c2ccccc2)c2nc(Nc3ccc(N4CCN(C(C)C)CC4)c(OC)c3)ncc2c1=O [Example 114, 6-allyl-2-{[4-(4-isopropylpiperazin-1-yl)-3-methoxyphenyl]amino}-8-phenylpyrimido[4,5-d]pyridazin-5(6H)-one] | 8.52
C=CCn1nc(-c2ccccc2)c2nc(Nc3ccc(N4CCCN(C(C)C)CC4)c(C)c3)ncc2c1=O [Example 115, 6-allyl-2-{[4-(4-isopropyl-1,4-diazepan-1-yl)-3-methylphenyl]amino}-8-phenylpyrimido[4,5-d]pyridazin-5(6H)-one] | 8.40
Cc1cc(Nc2ncc3c(=O)n(-c4ccccc4C)nc(-c4ccccc4)c3n2)ccc1N1CCCN(C(C)C)CC1 [Example 116, 2-{[4-(4-isopropyl-1,4-diazepan-1-yl)-3-methylphenyl]amino}-6-(2-methylphenyl)-8-phenylpyrimido[4,5-d]pyridazin-5(6H)-one] | 9.40

Other lines, results leading:

pKi | Structure (SMILES)
8.52 | C=CCn1nc(-c2cccs2)c2nc(Nc3ccc4c(c3)CN(C)CC43CC3)ncc2c1=O [Example 117, 6-allyl-2-[(2′-methyl-2′,3′-dihydro-1′H-spiro[cyclopropane-1,4′-isoquinolin]-7′-yl)amino]-8-(2-thienyl)pyrimido[4,5-d]pyridazin-5(6H)-one]
9.00 | Cc1ccccc1-n1nc(-c2cccs2)c2nc(Nc3ccc(N4CCN(C(C)C)CC4)cc3)ncc2c1=O [Example 118, 2-{[4-(4-isopropylpiperazin-1-yl)phenyl]amino}-6-(2-methylphenyl)-8-(2-thienyl)pyrimido[4,5-d]pyridazin-5(6H)-one]
9.00 | Cc1cc(Nc2ncc3c(=O)n(-c4ccccc4C)nc(-c4cccs4)c3n2)ccc1N1CCN(C(C)C)CC1 [Example 119, 2-{[4-(4-isopropylpiperazin-1-yl)-3-methylphenyl]amino}-6-(2-methylphenyl)-8-(2-thienyl)pyrimido[4,5-d]pyridazin-5(6H)-one]
9.00 | Cc1cc(Nc2ncc3c(=O)n(-c4ccccc4C)nc(-c4cccs4)c3n2)ccc1N1CCCN(C(C)C)CC1 [Example 120, 2-{[4-(4-isopropyl-1,4-diazepan-1-yl)-3-methylphenyl]amino}-6-(2-methylphenyl)-8-(2-thienyl)pyrimido[4,5-d]pyridazin-5(6H)-one]
8.52 | O=C1CCCN1c1ccc(Nc2ncc3c(=O)n(-c4ccccc4Cl)nc(-c4cccs4)c3n2)cc1 [Example 121, 6-(2-chlorophenyl)-2-{[4-(2-oxopyrrolidin-1-yl)phenyl]amino}-8-(2-thienyl)pyrimido[4,5-d]pyridazin-5(6H)-one]
9.30 | CC(C)N1CCN(c2ccc(Nc3ncc4c(=O)n(-c5ccccc5Cl)nc(-c5cccs5)c4n3)cc2)CC1 [Example 122, 6-(2-chlorophenyl)-2-{[4-(4-isopropylpiperazin-1-yl)phenyl]amino}-8-(2-thienyl)pyrimido[4,5-d]pyridazin-5(6H)-one]
8.70 | CN1Cc2cc(Nc3ncc4c(=O)n(-c5ccccc5Cl)nc(-c5cccs5)c4n3)ccc2C2(CC2)C1 [Example 123, 6-(2-chlorophenyl)-2-[(2′-methyl-2′,3′-dihydro-1′H-spiro[cyclopropane-1,4′-isoquinolin]-7′-yl)amino]-8-(2-thienyl)pyrimido[4,5-d]pyridazin-5(6H)-one]
7.12 | C=CCn1nc(-c2cccs2)c2nc(Nc3ccc(N4CCCC4=O)cc3)ncc2c1=O [Example 124, 6-allyl-2-{[4-(2-oxopyrrolidin-1-yl)phenyl]amino}-8-(2-thienyl)pyrimido[4,5-d]pyridazin-5(6H)-one]
< 5.50 | C=CCn1nc(-c2cccs2)c2nc(Nc3ccc(S(=O)(=O)N4CCOCC4)cc3)ncc2c1=O [Example 125, 6-allyl-2-{[4-(morpholin-4-ylsulfonyl)phenyl]amino}-8-(2-thienyl)pyrimido[4,5-d]pyridazin-5(6H)-one]
8.22 | C=CCn1nc(-c2cccs2)c2nc(Nc3ccc(N4CCN(C(C)C)CC4)cc3)ncc2c1=O [Example 126, 6-allyl-2-{[4-(4-isopropylpiperazin-1-yl)phenyl]amino}-8-(2-thienyl)pyrimido[4,5-d]pyridazin-5(6H)-one]
8.40 | C=CCn1nc(-c2cccs2)c2nc(Nc3ccc(N4CCN(C(C)C)CC4)c(C)c3)ncc2c1=O [Example 127, 6-allyl-2-{[4-(4-isopropylpiperazin-1-yl)-3-methylphenyl]amino}-8-(2-thienyl)pyrimido[4,5-d]pyridazin-5(6H)-one]
8.22 | Cc1ccccc1-n1nc(-c2cccs2)c2nc(Nc3ccc(N4CCCC4=O)cc3)ncc2c1=O [Example 128, 6-(2-methylphenyl)-2-{[4-(2-oxopyrrolidin-1-yl)phenyl]amino}-8-(2-thienyl)pyrimido[4,5-d]pyridazin-5(6H)-one]
< 5.50 | Cc1ccccc1-n1nc(-c2cccs2)c2nc(Nc3ccc(S(=O)(=O)N4CCOCC4)cc3)ncc2c1=O [Example 129, 6-(2-methylphenyl)-2-{[4-(morpholin-4-ylsulfonyl)phenyl]amino}-8-(2-thienyl)pyrimido[4,5-d]pyridazin-5(6H)-one]
